Test results published in PubChem BioAssay AID1963828 (Molecular Pharmacology Branch, DTP, NCI, 2024).

Test system: 991263-137-R1-J2-PDC complex spheroid viability
Test: Anticancer human tumor 991263-137-R1-J2-PDC patient-derived colon adenocarcinoma cell line growth inhibition [POLQ]
Conditions: for IC50: curve of first compound; for viability, T/C: stronger effect = lower value
Summary of the method: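 Patient-derived tumour cells were co-cultured with HUVEC and mesenchymal stem cells as multicellular spheroids at 37 °C. They were treated with POLQ inhibitors (novobiocin, ART-558, RP6685) alone or combined with other agents. Top concentrations were at or near clinical Cmax (otherwise 10 microM; SN-38 at 1 microM), decreasing in half-log steps.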

[1] = second compound 0.0316 µM, first compound 0.0316 µM
[2] = second compound 0.0316 µM, first compound 0.1 µM
[3] = second compound 0.1 µM, first compound 0.0316 µM
[4] = second compound 0.1 µM, first compound 0.1 µM
[5] = second compound 0.316 µM, first compound 0.0316 µM
[6] = second compound 0.316 µM, first compound 0.1 µM
[7] = second compound 1 µM, first compound 0.0316 µM
[8] = second compound 1 µM, first compound 0.1 µM
[9] = second compound 3.16 µM, first compound 0.0316 µM
[10] = second compound 3.16 µM, first compound 0.1 µM
[11] = second compound 10 µM, first compound 0.0316 µM
[12] = second compound 10 µM, first compound 0.1 µM
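Further: spheroids exposed to compounds for 7 days before readout.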
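Wherever viability, T/C is given: 100% = DMSO vehicle control viability.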

COc1ccc([C@@H](O)c2cc(-c3ncnc4cc(N5CCOCC5)ccc34)c(F)cc2Cl)nn1 + COC1C(OC(N)=O)C(O)C(Oc2ccc3c(O)c(NC(=O)c4ccc(O)c(CC=C(C)C)c4)c(=O)oc3c2C)OC1(C)C
IC50 (second compound 0.0316 µM): 5.41 µM
IC50 (second compound 0.1 µM): 4.12 µM
IC50 (second compound 0.316 µM): 5.53 µM
IC50 (second compound 1 µM): 2.94 µM
IC50 (second compound 3.16 µM): 6.38 µM
IC50 (second compound 10 µM): 6.09 µM
viability, T/C [1]: 107%
viability, T/C [2]: 96.3%
viability, T/C (second compound 0.0316 µM, first compound 0.316 µM): 90.8%
viability, T/C (second compound 0.0316 µM, first compound 1 µM): 76.2%
viability, T/C (second compound 0.0316 µM, first compound 3.16 µM): 71.7%
viability, T/C (second compound 0.0316 µM, first compound 10 µM): 31.5%
viability, T/C [3]: 99.8%
viability, T/C [4]: 98.3%
viability, T/C (second compound 0.1 µM, first compound 0.316 µM): 84.6%
viability, T/C (second compound 0.1 µM, first compound 1 µM): 91.7%
viability, T/C (second compound 0.1 µM, first compound 3.16 µM): 55.6%
viability, T/C (second compound 0.1 µM, first compound 10 µM): 30.9%
viability, T/C [5]: 82.7%
viability, T/C [6]: 107%
viability, T/C (second compound 0.316 µM, first compound 0.316 µM): 88.5%
viability, T/C (second compound 0.316 µM, first compound 1 µM): 71%
viability, T/C (second compound 0.316 µM, first compound 3.16 µM): 70.5%
viability, T/C (second compound 0.316 µM, first compound 10 µM): 33%
viability, T/C [7]: 95.3%
viability, T/C [8]: 107%
viability, T/C (second compound 1 µM, first compound 0.316 µM): 96.8%
viability, T/C (second compound 1 µM, first compound 1 µM): 70.7%
viability, T/C (second compound 1 µM, first compound 3.16 µM): 51.9%
viability, T/C (second compound 1 µM, first compound 10 µM): 32.6%
viability, T/C [9]: 94.3%
viability, T/C [10]: 101%
viability, T/C (second compound 3.16 µM, first compound 0.316 µM): 96.7%
viability, T/C (second compound 3.16 µM, first compound 1 µM): 85.6%
viability, T/C (second compound 3.16 µM, first compound 3.16 µM): 79.9%
viability, T/C (second compound 3.16 µM, first compound 10 µM): 32.2%
viability, T/C [11]: 88.1%
viability, T/C [12]: 103%
viability, T/C (second compound 10 µM, first compound 0.316 µM): 94.8%
viability, T/C (second compound 10 µM, first compound 1 µM): 111%
viability, T/C (second compound 10 µM, first compound 3.16 µM): 67.1%
viability, T/C (second compound 10 µM, first compound 10 µM): 37.1%

CC[C@@]1(O)C(=O)OCc2c1cc1n(c2=O)Cc2cc3c(CN(C)C)c(O)ccc3nc2-1 + COC1C(OC(N)=O)C(O)C(Oc2ccc3c(O)c(NC(=O)c4ccc(O)c(CC=C(C)C)c4)c(=O)oc3c2C)OC1(C)C
IC50 (second compound 0.0316 µM): > 0.1 µM
IC50 (second compound 0.1 µM): > 0.1 µM
IC50 (second compound 0.316 µM): > 0.1 µM
IC50 (second compound 1 µM): > 0.1 µM
IC50 (second compound 3.16 µM): > 0.1 µM
IC50 (second compound 10 µM): > 0.1 µM
viability, T/C (second compound 0.0316 µM, first compound 0.000316 µM): 103%
viability, T/C (second compound 0.0316 µM, first compound 0.001 µM): 103%
viability, T/C (second compound 0.0316 µM, first compound 0.00316 µM): 106%
viability, T/C (second compound 0.0316 µM, first compound 0.01 µM): 103%
viability, T/C [1]: 100%
viability, T/C [2]: 87.3%
viability, T/C (second compound 0.1 µM, first compound 0.000316 µM): 105%
viability, T/C (second compound 0.1 µM, first compound 0.001 µM): 125%
viability, T/C (second compound 0.1 µM, first compound 0.00316 µM): 98.3%
viability, T/C (second compound 0.1 µM, first compound 0.01 µM): 79.6%
viability, T/C [3]: 86.4%
viability, T/C [4]: 71.4%
viability, T/C (second compound 0.316 µM, first compound 0.000316 µM): 110%
viability, T/C (second compound 0.316 µM, first compound 0.001 µM): 110%
viability, T/C (second compound 0.316 µM, first compound 0.00316 µM): 107%
viability, T/C (second compound 0.316 µM, first compound 0.01 µM): 100%
viability, T/C [5]: 102%
viability, T/C [6]: 84.5%
viability, T/C (second compound 1 µM, first compound 0.000316 µM): 82.4%
viability, T/C (second compound 1 µM, first compound 0.001 µM): 106%
viability, T/C (second compound 1 µM, first compound 0.00316 µM): 97.7%
viability, T/C (second compound 1 µM, first compound 0.01 µM): 93.2%
viability, T/C [7]: 75.7%
viability, T/C [8]: 86.4%
viability, T/C (second compound 3.16 µM, first compound 0.000316 µM): 93.9%
viability, T/C (second compound 3.16 µM, first compound 0.001 µM): 107%
viability, T/C (second compound 3.16 µM, first compound 0.00316 µM): 104%
viability, T/C (second compound 3.16 µM, first compound 0.01 µM): 112%
viability, T/C [9]: 98.6%
viability, T/C [10]: 87.7%
viability, T/C (second compound 10 µM, first compound 0.000316 µM): 92.8%
viability, T/C (second compound 10 µM, first compound 0.001 µM): 114%
viability, T/C (second compound 10 µM, first compound 0.00316 µM): 99.1%
viability, T/C (second compound 10 µM, first compound 0.01 µM): 95.3%
viability, T/C [11]: 110%
viability, T/C [12]: 88.5%
